Assay results published in EP1066315B1 (University of Dundee, priority 1998, dated 2008).
Entries after “also recorded” stand apart in the source; their conditions may differ. Residues, ends and D or L forms follow the SMILES beside them. *: point of attachment. Fmoc = O=C(OCC1c2ccccc2-c2ccccc21)*

Test system: EBV-transformed B cells / autologous TTCF-specific T cell clones
Test: TTCF antigen presentation by EBV-transformed B cells, read out as proliferation of autologous T cell clones
Type: cell-based, human
Experimental: The invention will now be described by reference to the following Examples and Figures wherein • Figure 1: Processing of TTCF by a leupeptin-insensitive cysteine endopeptidase activity. (a) TTCF was digested in vitro in the presence of disrupted lysosomes (1-2 µg) in the presence or absence of iodoacetamide (1 mM), leupeptin, E64 or pepstatin (each at 0.1 mg/ml). Digestions were in 0.1 M NH4 acetate at pH 4.5 or Na2HPO4, pH 6.0 or 7.0. After 4 hours at 37°C, the reactions were separated by Tris-tricine SDS-PAGE and stained with Coomassie Blue. (b) Cleavage sites: TTCF digestion products were separated by SDS PAGE and electrophoretically transferred to nitrocellulose membrane. Individual fragments numbered 1-6 were subjected to 5 cycles of Edman degradation. N-terminal sequence obtained is shown in bold following upstream residues from TTCF (tetanus toxin numbering). The N-terminal sequence of His-tagged TTCF was obtained for fragments 1 and 3. (c) Residues Asn 1184 and Glu 1184 in TTCF were mutated to alanine (see Methods) and digestions performed as before. The mutation abolishes cleavage at the mutated site but not at the first site (doublet at 47 kD). In this experiment cleavage of the third site was minimal. • Figure 2: TTCF is processed by an asparaginyl endopeptidase. (a) Chromatography of the TTCF processing activity on Mono-S resin. Fractions eluted by NaCl gradient were incubated with the substrates Z-Ala-Ala-Asn-NHMec or Z-Phe-Arg-NHMec in the presence or absence of E64 (trans-epoxysuccinyl-L-leucylamido-(4-guanidino)butane). […] (c) Each fraction was analysed by SDS-PAGE and Western blotting. […] Release of 7-amino-4-methyl coumarin was measured after 10, 20 or 30 minutes. […] At different times the cells were washed, fixed in 0.05 % glutaraldehyde and antigen presentation measured using proliferation of different autologous TTCF-specific T cell clones. c, AEP pre-processing of TTCF speeds antigen presentation. […] Presentation was measured after 60 minutes of antigen pulsing using EBV B cells. […]

C[C@H](NC(=O)OCC1c2ccccc2-c2ccccc21)C(=O)N[C@@H](CCC(=O)O)C(=O)N[C@@H](CC(N)=O)C(=O)N[C@@H](CCCCN)C(N)=O [AENK, Ala-Glu-Asn-Lys-NH] (Fmoc-AENK-NH2)
presentation of AEP-pre-processed antigen (EBV B cells, TTCF pre-processed with AEP, 60 minutes of antigen pulsing, Fig 9d): no longer inhibited; also recorded: did not block
antigen presentation by EBV-B cells (EBV-B cells from donor, 2 mg/ml peptide, Fig 9b): blocked antigen presentation by EBV-B cells very effectively
